Experimental data as given in PubChem BioAssay AID330 (DTP/NCI, 2004).
Where “and” joins values, the source holds several entries; their conditions need not be identical. Equal entries are not always repeated. Toxic doses and inconclusive results are not listed.

System: P388 leukemia ip, CD2F1 mice, survival T/C
Experiment: NCI In Vivo Anticancer Drug Screen. Data for tumor model P388 Leukemia (intraperitoneal) in CD2F1 (CDF1) mice
Conditions: endpoint: median survival time, higher = longer survival
In short: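 Mice carrying the transplanted tumor received test compound or vehicle. Survival was recorded in each group, and the value is the treated-group measurement divided by that of the vehicle-treated control group.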

[1] = dose: 50.0 mg/kg/injection, schedule: Q01DX009 (ip), vehicle: Klucel (hydroxypropylcellulose) (HPC)
[2] = dose: 100.0 mg/kg/injection, schedule: Q01DX009 (ip), vehicle: Klucel (hydroxypropylcellulose) (HPC)
[3] = dose: 200.0 mg/kg/injection, schedule: Q01DX009 (ip), vehicle: Klucel (hydroxypropylcellulose) (HPC)
[4] = dose: 50.0 mg/kg/injection, schedule: Q01DX005 (ip), vehicle: saline with Tween-80
[5] = dose: 100.0 mg/kg/injection, schedule: Q01DX005 (ip), vehicle: saline with Tween-80
[6] = dose: 200.0 mg/kg/injection, schedule: Q01DX005 (ip), vehicle: saline with Tween-80

SMILES: CC1=CCC2C([C@H]1OC(=O)c1ccc([N+](=O)[O-])cc1)C(C)(C)CCC[C@]2(C)O (stereo not given in full)
- T/C (dose: 100.0 mg/kg/injection, schedule: Q04DX002 (ip), vehicle: Klucel (hydroxypropylcellulose) (HPC)): 98 % of control
- T/C (dose: 200.0 mg/kg/injection, schedule: Q04DX002 (ip), vehicle: Klucel (hydroxypropylcellulose) (HPC)): 89 % of control
- T/C (dose: 400.0 mg/kg/injection, schedule: Q04DX002 (ip), vehicle: Klucel (hydroxypropylcellulose) (HPC)): 90 % of control

SMILES: CCC1(C)c2[nH]c3ccccc3c2C(=O)NN1C(C)=O (stereo not given)
- T/C (dose: 50.0 mg/kg/injection, schedule: Q01DX005 (ip), vehicle: Klucel (hydroxypropylcellulose) (HPC)): 104 % of control
- T/C (dose: 100.0 mg/kg/injection, schedule: Q01DX005 (ip), vehicle: Klucel (hydroxypropylcellulose) (HPC)): 107 % of control
- T/C (dose: 200.0 mg/kg/injection, schedule: Q01DX005 (ip), vehicle: Klucel (hydroxypropylcellulose) (HPC)): 112 % of control

SMILES: CN(C)N1C(=O)C(c2ccccc2)(c2ccccc2)CSC1=S
- T/C [1]: 108 % of control
- T/C [2]: 100 % of control
- T/C [3]: 101 % of control

SMILES: CCC1=C[C@@H]2C[C@](C(=O)OC)(c3cc4c(cc3OC)N(C)[C@H]3[C@@](O)(C(=O)NC)[C@H](OC(C)=O)[C@]5(CC)C=CCN6CC[C@]43[C@@H]65)c3[nH]c4ccccc4c3CCN(C1)[C@@H]2O
- T/C (dose: 0.39 mg/kg/injection, schedule: Q01DX001 (ip), vehicle: water): 123 % of control
- T/C (dose: 1.56 mg/kg/injection, schedule: Q01DX001 (ip), vehicle: water): 151 % of control
- T/C (dose: 3.13 mg/kg/injection, schedule: Q01DX001 (ip), vehicle: water): 152 % of control and 158 % of control

SMILES: CN(C)N=Nc1ccc(C(N)=O)cc1
- T/C (dose: 12.5 mg/kg/injection, schedule: Q01DX009 (ip), vehicle: saline): 101 % of control and 103 % of control and 93 % of control
- T/C (dose: 25.0 mg/kg/injection, schedule: Q01DX009 (ip), vehicle: saline): 98 % of control and 99 % of control and 100 % of control
- T/C (dose: 50.0 mg/kg/injection, schedule: Q01DX009 (ip), vehicle: saline): 98 % of control and 107 % of control and 91 % of control
- T/C (dose: 100.0 mg/kg/injection, schedule: Q01DX009 (ip), vehicle: saline): 111 % of control and 96 % of control

SMILES: CC(=O)[C@@]1(O)CC[C@H]2[C@@H]3C[C@H](C)C4=CC(=O)CC[C@]4(C)[C@H]3[C@@H](O)C[C@@]21C
- T/C (dose: 66.0 mg/kg/injection, schedule: Q01DX009 (ip), vehicle: saline with Tween-80): 100 % of control
- T/C (dose: 100.0 mg/kg/injection, schedule: Q01DX009 (ip), vehicle: saline with Tween-80): 100 % of control
- T/C (dose: 150.0 mg/kg/injection, schedule: Q01DX009 (ip), vehicle: saline with Tween-80): 104 % of control

SMILES: [NH-]c1ncnc2[nH]c(C[N-]C(Cc3cnc[nH]3)C(=O)O)nc12.[Pd+2] (stereo not given)
- T/C (dose: 50.0 mg/kg/injection, schedule: Q01DX005 (ip), vehicle: saline): 90 % of control
- T/C (dose: 100.0 mg/kg/injection, schedule: Q01DX005 (ip), vehicle: saline): 97 % of control
- T/C (dose: 200.0 mg/kg/injection, schedule: Q01DX005 (ip), vehicle: saline): 94 % of control

SMILES: Cc1cc(NC(=O)c2ccc(N=Nc3c(O)c(S(=O)(=O)O)cc4cc(S(=O)(=O)O)ccc34)cc2)ccc1N=Nc1ccc2cc(S(=O)(=O)O)cc(S(=O)(=O)O)c2c1
- T/C [4]: 95 % of control
- T/C [5]: 98 % of control
- T/C [6]: 104 % of control

SMILES: CCOC(=O)NC(CC(NC(=O)OCC)NC(=O)OCC)NC(=O)OCC
- T/C [4]: 108 % of control
- T/C [5]: 107 % of control
- T/C [6]: 110 % of control

SMILES: CCc1cccc2c(NCCCCCCCCCCNc3c4ccccc4nc4c(CC)cccc34)c3ccccc3nc12
- T/C (dose: 0.62 mg/kg/injection, schedule: Q## X009 (ip), vehicle: lactic acid): 104 % of control
- T/C (dose: 1.25 mg/kg/injection, schedule: Q## X009 (ip), vehicle: lactic acid): 107 % of control
- T/C (dose: 2.5 mg/kg/injection, schedule: Q## X009 (ip), vehicle: lactic acid): 113 % of control

SMILES: CC(=O)SCC1C(=O)CC(C)(C)CC1=O
- T/C (dose: 200.0 mg/kg/injection, schedule: Q04DX003 (ip), vehicle: Klucel (hydroxypropylcellulose) (HPC)): 89 % of control

SMILES: Cc1ccnc(NN=O)n1
- T/C (dose: 3.12 mg/kg/injection, schedule: Q01DX009 (ip), vehicle: water): 99 % of control
- T/C (dose: 6.25 mg/kg/injection, schedule: Q01DX009 (ip), vehicle: water): 113 % of control
- T/C (dose: 12.5 mg/kg/injection, schedule: Q01DX009 (ip), vehicle: water): 98 % of control
- T/C (dose: 25.0 mg/kg/injection, schedule: Q01DX009 (ip), vehicle: water): 100 % of control and 105 % of control
- T/C (dose: 50.0 mg/kg/injection, schedule: Q01DX009 (ip), vehicle: water): 113 % of control and 90 % of control
- T/C (dose: 100.0 mg/kg/injection, schedule: Q01DX009 (ip), vehicle: water): 100 % of control
- T/C (dose: 200.0 mg/kg/injection, schedule: Q01DX009 (ip), vehicle: water): 104 % of control

SMILES: CCCCCCCCCCCCCCCCCC(=O)Nc1ncc([N+](=O)[O-])s1
- T/C [1]: 106 % of control
- T/C [2]: 101 % of control
- T/C [3]: 101 % of control

SMILES: c1cc2c3c(cccc3c1)NN=N2
- T/C (dose: 60.0 mg/kg/injection, schedule: Q01DX005 (ip), vehicle: Klucel + Tween-80): 106 % of control
- T/C (dose: 120.0 mg/kg/injection, schedule: Q01DX005 (ip), vehicle: Klucel + Tween-80): 99 % of control
- T/C (dose: 240.0 mg/kg/injection, schedule: Q01DX005 (ip), vehicle: Klucel + Tween-80): 96 % of control
